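These data come from cells grown in 96-well plates and exposed to compound for 48 hours at five concentrations. TGI: concentration producing complete growth inhibition.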
Legend:
Assay in all cases: inhibition of tumour cell growth, NCI panel, 48 h
[1] = test system: 786-0 renal
[2] = test system: ACHN renal
[3] = test system: CCRF-CEM leukemia
[4] = test system: HOP-62 NSCLC
[5] = test system: HS 578T breast
[6] = test system: K-562 leukemia
[7] = test system: MDA-N
[8] = test system: NCI-H23 lung
[9] = test system: OVCAR-4 ovarian
[10] = test system: OVCAR-5 ovarian
[11] = test system: RPMI-8226 leukemia
[12] = test system: SK-MEL-28 melanoma
[13] = test system: SK-MEL-5 melanoma
[14] = test system: SK-OV-3 ovarian
[15] = test system: SN12C renal
[16] = test system: SNB-75 CNS
[17] = test system: TK-10 renal
[18] = test system: UACC-62 melanoma
[19] = test system: UO-31 renal
[20] = test system: SF-539 CNS

| Compound | TGI [1] [µM] | TGI [2] [µM] | TGI [3] [µM] | TGI [4] [µM] | TGI [5] [µM] | TGI [6] [µM] | TGI [7] [µM] | TGI [8] [µM] | TGI [9] [µM] | TGI [10] [µM] | TGI [11] [µM] | TGI [12] [µM] | TGI [13] [µM] | TGI [14] [µM] | TGI [15] [µM] | TGI [16] [µM] | TGI [17] [µM] | TGI [18] [µM] | TGI [19] [µM] | TGI [20] [µM] |
| --- | --- | --- | --- | --- | --- | --- | --- | --- | --- | --- | --- | --- | --- | --- | --- | --- | --- | --- | --- | --- |
| CNC(=O)C1CCCN1C(=O)C(Cc1cnc[nH]1)NC(=O)C1CCC(=O)N1 (stereo unspecified) | > 100 | > 100 | > 100 | > 100 | > 100 | > 100 | > 100 | > 100 | > 100 | > 100 | > 100 | > 100 | > 100 | > 100 | > 100 | > 100 | > 100 | > 100 | > 100 | – |
| CN(C)C(=S)N/N=C(\C(=N/NC(=S)N(C)C)c1ccccn1)c1ccccn1 | 27 | 20.1 | – | 38.7 | > 46 | > 100 | > 54 | > 53.2 | 26.8 | 55.1 | > 100 | 34.4 | 24.5 | 30.4 | 20.3 | 27.4 | 22.2 | 32.8 | 21.6 | > 100 |
| C=C1CC2CC(=O)C(O)C(C1)C2 (stereo unspecified) | > 100 | > 100 | > 100 | > 100 | > 100 | > 100 | > 100 | > 100 | – | > 100 | > 100 | – | > 100 | > 100 | > 100 | > 100 | > 100 | > 100 | > 100 | > 100 |
| Cc1ccc([N+](=O)[O-])cc1S(=O)(=O)Nc1ccc(C2=NN(C(=O)c3ccccc3)C(c3cccs3)C2)cc1 (stereo unspecified) | 45.2 | > 100 | > 100 | 78.3 | > 100 | > 100 | 77.4 | 61.7 | > 100 | > 100 | > 100 | > 100 | 32.7 | 82.5 | 66.3 | 67 | 75.1 | – | > 100 | 63.9 |
| CN(C)CCNC1=CC(=O)c2nc3ccccc3c3ccnc1c23 | 15.6 | 15 | 21.3 | 25.6 | 24.5 | 17.7 | 20.7 | 18.9 | 16.6 | 34.1 | 55.5 | 23.5 | – | 29.4 | 20.3 | 27.8 | 97.5 | 18.2 | 23.8 | 15.5 |
| C(=NCCCN1CCN(CCCN=Cc2cccc3ccccc23)CC1)c1cccc2ccccc12 | > 100 | > 100 | > 100 | > 100 | > 100 | > 100 | > 100 | > 100 | > 100 | > 100 | > 100 | > 100 | – | > 100 | > 100 | > 100 | > 100 | > 100 | > 100 | > 100 |
| O=C1C(c2c(O)[nH]c3ccccc23)=Nc2ccc(Br)cc21 | 28.8 | 77 | > 100 | 74.1 | 72.8 | > 100 | > 100 | > 100 | 69.5 | > 100 | > 100 | > 100 | > 100 | > 100 | > 100 | 34.9 | 65.2 | 54 | 70.7 | – |
| COC(=O)c1ccc(COC(=O)N2C=CCC2C(=O)O)cc1 (stereo unspecified) | > 100 | > 100 | – | > 100 | > 100 | > 100 | > 100 | > 100 | – | > 100 | > 100 | > 100 | > 100 | > 100 | > 100 | > 100 | > 100 | > 100 | > 100 | > 100 |
| CCOC(=O)c1nnsc1NN=C(C)C | > 100 | – | – | > 100 | > 100 | > 100 | > 100 | > 100 | > 100 | > 100 | > 100 | > 100 | > 100 | > 100 | > 100 | > 100 | > 100 | > 100 | > 100 | > 100 |
| O=P(c1ccccc1)(c1ccccc1)c1ccc2c(c1)OCCOCCOCCOCCO2 | > 100 | > 100 | > 100 | > 100 | > 100 | > 100 | > 100 | > 100 | – | – | > 100 | > 100 | > 100 | > 100 | > 100 | > 100 | > 100 | > 100 | > 100 | > 100 |

From PubChem BioAssay (NCI)
